# According to US20160102073A1, “2-HYDROXYMETHYL-SUBSTITUTED OREXIN RECEPTOR ANTAGONISTS” (MERCK SHARP & DOHME CORP., priority 2013, published 2016):
# Legend:
# [1] = target: T1, human orexin-2 receptor (hOX2R) (Homo sapiens, UniProt O43614); test: FLIPR Ca2+ Flux Assay, CHO cells expressing hOX2R; format: cell-based; conditions: agonist 70 pM Ala-6,12 orexin-A
# T1 construct: expressed in transfected cells; host or cells: Chinese hamster ovary (CHO) cells, grown under G418 selection
# T1 sequence (O43614 1-444): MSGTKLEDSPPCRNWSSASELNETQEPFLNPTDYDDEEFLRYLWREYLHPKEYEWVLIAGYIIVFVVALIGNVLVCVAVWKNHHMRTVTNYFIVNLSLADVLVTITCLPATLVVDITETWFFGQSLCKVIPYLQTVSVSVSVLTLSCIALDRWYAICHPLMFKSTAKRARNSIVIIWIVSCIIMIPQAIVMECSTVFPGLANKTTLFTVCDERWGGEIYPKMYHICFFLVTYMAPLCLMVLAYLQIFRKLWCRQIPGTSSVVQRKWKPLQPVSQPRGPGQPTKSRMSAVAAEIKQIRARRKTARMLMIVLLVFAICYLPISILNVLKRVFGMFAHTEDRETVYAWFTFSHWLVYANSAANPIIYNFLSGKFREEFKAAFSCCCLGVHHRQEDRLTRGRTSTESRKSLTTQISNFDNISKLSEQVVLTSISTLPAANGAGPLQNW
# Procedure: The utility of the compounds in accordance with the present invention as orexin receptor OX1R and/or OX2R antagonists may be readily determined without undue experimentation by methodology well known in the art, including the “FLIPR Ca^2+ Flux Assay” (Okumura et al., Biochem. Biophys. Res. Comm. 280:976-981, 2001). In a typical experiment the OX1 and OX2 receptor antagonistic activity of the compounds of the present invention was determined in accordance with the following experimental method. For intracellular calcium measurements, Chinese hamster ovary (CHO) cells expressing the rat orexin-1 receptor or the human orexin-2 receptor, are grown in Iscove's modified DMEM containing 2 mM L-glutamine, […], 1% hypoxanthine-thymidine supplement, 100 U/ml penicillin, 100 μg/ml streptomycin and 10% heat-inactivated fetal calf serum (FCS). The cells are seeded at 20,000 cells/well into Becton-Dickinson black 384-well clear bottom sterile plates coated with poly-D-lysine. All reagents were from GIBCO-Invitrogen Corp. The seeded plates are incubated overnight at 37° C. and 5% CO2. Ala-6,12 human orexin-A as the agonist is prepared as a 1 mM stock solution in 1% bovine serum albumin (BSA) and diluted in assay buffer (HBSS containing 20 mM HEPES, 0.1% BSA and 2.5 mM probenecid, pH7.4) for use in the assay at a final concentration of 70 pM. Test compounds are prepared as 10 mM stock solution in DMSO, then diluted in 384-well plates, first in DMSO, then assay buffer. On the day of the assay, cells are washed 3 times with 100 μl assay buffer and then incubated for 60 min (37° C., 5% CO2) in 60 μl assay buffer containing 1 μM Fluo-4AM ester, 0.02% pluronic acid, and 1% BSA. The dye loading solution is then aspirated and cells are washed 3 times with 100 μl assay buffer. 30 μl of that same buffer is left in each well. Within the Fluorescent Imaging Plate Reader (FLIPR, Molecular Devices), test compounds are added to the plate in a volume of 25 μl, incubated for 5 min and finally 25 μl of agonist is added. Fluorescence is measured for each well at 1 second intervals for 5 minutes and the height of each fluorescence peak is compared to the height of the fluorescence peak induced by 70 pM Ala-6,12 orexin-A with buffer in place of antagonist. For each antagonist, IC50 value (the concentration of compound needed to inhibit 50% of the agonist response) is determined. Alternatively, compound potency can be assessed by a radioligand binding assay (described in Bergman et. al. Bioorg. Med. Chem. Lett. 2008, 18, 1425-1430) in which the inhibition constant (Ki) is determined in membranes prepared from CHO cells expressing either the OX1 or OX2 receptor. The intrinsic orexin receptor antagonist activity of a compound which may be used in the present invention may be determined by these assays.
# Chinese hamster ovary (CHO) cells expressing the human orexin-1 receptor (hOX1R) or the human orexin-2 receptor (hOX2R) were grown in Iscove's modified DMEM containing 2 mM L-glutamine, […], 1% hypoxanthine-thymidine supplement, 100 U/ml penicillin, 100 μg/ml streptomycin and 10% heat-inactivated fetal calf serum (FCS). The cells were seeded at 20,000 cells/well into Becton-Dickinson black 384-well clear bottom sterile plates coated with poly-D-lysine. All reagents were from GIBCO-Invitrogen Corp. The seeded plates were incubated overnight at 37° C. and 5% CO2. Ala-6,12 human orexin-A, used as the agonist, was prepared as a 1 mM stock solution in 1% bovine serum albumin (BSA) and diluted in assay buffer (HBSS containing 20 mM HEPES, 0.1% BSA and 2.5 mM probenecid, pH7.4) for use in the assay at a final concentration of 70 pM. Test compounds were prepared as 10 mM stock solution in DMSO, then diluted in 384-well plates, first in DMSO, then assay buffer. […]
# [2] = target: T2, human orexin-1 receptor (hOX1R) (Homo sapiens, UniProt O43613); test: FLIPR Ca2+ Flux Assay, CHO cells expressing hOX1R; format: cell-based; conditions: agonist 70 pM Ala-6,12 orexin-A
# T2 construct: expressed in transfected cells; host or cells: Chinese hamster ovary (CHO) cells, grown under G418 selection
# T2 sequence (O43613 1-425): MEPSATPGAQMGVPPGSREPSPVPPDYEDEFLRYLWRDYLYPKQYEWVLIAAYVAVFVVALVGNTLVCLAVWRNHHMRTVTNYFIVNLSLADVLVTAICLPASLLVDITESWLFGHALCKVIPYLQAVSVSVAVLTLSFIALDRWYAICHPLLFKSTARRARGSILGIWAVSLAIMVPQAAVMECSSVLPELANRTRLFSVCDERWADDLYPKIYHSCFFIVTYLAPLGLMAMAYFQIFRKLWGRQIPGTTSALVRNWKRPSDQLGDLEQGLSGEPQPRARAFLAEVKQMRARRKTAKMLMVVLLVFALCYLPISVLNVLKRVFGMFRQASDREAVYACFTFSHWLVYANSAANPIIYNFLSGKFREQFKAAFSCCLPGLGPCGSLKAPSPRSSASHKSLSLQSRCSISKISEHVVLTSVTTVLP
# Procedure: Chinese hamster ovary (CHO) cells expressing the human orexin-1 receptor (hOX1R) or the human orexin-2 receptor (hOX2R) were grown in Iscove's modified DMEM containing 2 mM L-glutamine, […], 1% hypoxanthine-thymidine supplement, 100 U/ml penicillin, 100 μg/ml streptomycin and 10% heat-inactivated fetal calf serum (FCS). The cells were seeded at 20,000 cells/well into Becton-Dickinson black 384-well clear bottom sterile plates coated with poly-D-lysine. All reagents were from GIBCO-Invitrogen Corp. The seeded plates were incubated overnight at 37° C. and 5% CO2. Ala-6,12 human orexin-A, used as the agonist, was prepared as a 1 mM stock solution in 1% bovine serum albumin (BSA) and diluted in assay buffer (HBSS containing 20 mM HEPES, 0.1% BSA and 2.5 mM probenecid, pH7.4) for use in the assay at a final concentration of 70 pM. Test compounds were prepared as 10 mM stock solution in DMSO, then diluted in 384-well plates, first in DMSO, then assay buffer.
# On the day of the assay, cells were washed 3× with 100 μl assay buffer and then incubated for 60 minutes (37° C., 5% CO2) in 60 μl assay buffer containing 1 μM Fluo-4AM ester, 0.02% pluronic acid, and 1% BSA. The dye loading solution was then aspirated and cells were washed 3× with 100 μl assay buffer. 30 μl of that same buffer was left in each well. Within the Fluorescent Imaging Plate Reader (FLIPR, Molecular Devices), test compounds were added to the plate in a volume of 25 μl, incubated for 5 minutes, and then 25 μl of agonist was added. Fluorescence was measured for each well at 1 second intervals for 5 minutes, and the height of each fluorescence peak was compared to the height of the fluorescence peak induced by 70 pM of Ala-6,12 orexin-A with buffer in place of test compound.
Structure (SMILES),IC50 [1] [nM],IC50 [2] [nM]
"CC(O)c1cccnc1O[C@@H]1CC[C@@H](C)N(C(=O)c2ccccc2-n2nccn2)C1 (stereo partly drawn) [Example 31, 1-(2-{[(3R,6R)-6-methyl-1-{[2-(2H-1,2,3-triazol-2-yl)phenyl]carbonyl}piperidin-3-yl]oxy}pyridin-3-yl)ethanol]",27,65
"CC[C@H](O)c1cccnc1O[C@@H]1CC[C@@H](C)N(C(=O)c2ccccc2-n2nccn2)C1 [Example 32, (1S)-1-(2-{[(3R,6R)-6-methyl-1-{[2-(2H-1,2,3-triazol-2-yl)phenyl]carbonyl}piperidin-3-yl]oxy}pyridin-3-yl)propan-1-ol]",27,227
"CC[C@@H](O)c1cccnc1O[C@@H]1CC[C@@H](C)N(C(=O)c2ccccc2-n2nccn2)C1 [Example 33, (1R)-1-(2-{[(3R,6R)-6-methyl-1-{[2-(2H-1,2,3-triazol-2-yl)phenyl]carbonyl}piperidin-3-yl]oxy}pyridin-3-yl) propan-1-ol]",33,46
"C#C[C@H](O)c1cccnc1O[C@@H]1CC[C@@H](C)N(C(=O)c2ccccc2-n2nccn2)C1 [Example 34, (1S)-1-(2-{[(3R,6R)-6-methyl-1-{[2-(2H-1,2,3-triazol-2-yl)phenyl]carbonyl}piperidin-3-yl]oxy}pyridin-3-yl)prop-2-yn-1-ol]",26,584
"C#C[C@@H](O)c1cccnc1O[C@@H]1CC[C@@H](C)N(C(=O)c2ccccc2-n2nccn2)C1 [Example 35, (1R)-1-(2-{[(3R,6R)-6-methyl-1-{[2-(2H-1,2,3-triazol-2-yl)phenyl]carbonyl}piperidin-3-yl]oxy}pyridin-3-yl)prop-2-yn-1-ol]",27,64
"C[C@@H]1CC[C@@H](Oc2ncccc2[C@H](O)C(F)(F)F)CN1C(=O)c1ccccc1-n1nccn1 [Example 36, (1S)-2,2,2-Trifluoro-1-(2-{[(3R,6R)-6-methyl-1-{[2-(2H-1,2,3-triazol-2-yl)phenyl]carbonyl}piperidin-3-yl]oxy}pyridin-3-yl)ethanol]",24,904
"C[C@@H]1CC[C@@H](Oc2ncccc2[C@@H](O)C(F)(F)F)CN1C(=O)c1ccccc1-n1nccn1 [Example 37, (1R)-2,2,2-Trifluoro-1-(2-{[(3R,6R)-6-methyl-1-{[2-(2H-1,2,3-triazol-2-yl)phenyl]carbonyl}piperidin-3-yl]oxy}pyridin-3-yl)ethanol]",18,55
"CC(O)c1c(C(F)(F)F)ccnc1O[C@@H]1CC[C@@H](C)N(C(=O)c2ccccc2-n2nccn2)C1 (stereo partly drawn) [Example 38, 1-[2-{[(3R,6R)-6-Methyl-1-{[2-(2H-1,2,3-triazol-2-yl)phenyl]carbonyl}piperidin-3-yl]oxy}-4-(trifluoromethyl)pyridin-3-yl]ethanol]",110,188
"C[C@@H]1CC[C@@H](Oc2ncccc2CO)CN1C(=O)c1ccccc1-n1nccn1 [Example 39, (2-{[(3R,6R)-6-Methyl-1-{[2-(2H-1,2,3-triazol-2-yl)phenyl]carbonyl}piperidin-3-yl]oxy}pyridin-3-yl)methanol]",18,925
"CCc1ccnc(O[C@@H]2CC[C@@H](C)N(C(=O)c3ccccc3-n3nccn3)C2)c1CO [Example 40, (4-Ethyl-2-{[(3R,6R)-6-methyl-1-{[2-(2H-1,2,3-triazol-2-yl)phenyl]carbonyl}piperidin-3-yl]oxy}pyridin-3-yl)methanol]",17,103
"Cc1ccnc(O[C@@H]2CC[C@@H](C)N(C(=O)c3ccccc3-n3nccn3)C2)c1CO [Example 41, (4-methyl-2-{[(3R,6R)-6-methyl-1-{[2-(2H-1,2,3-triazol-2-yl)phenyl]carbonyl}piperidin-3-yl]oxy}pyridin-3-yl)methanol]",15,69
"C[C@@H]1CC[C@@H](Oc2nccc(C3CC3)c2CO)CN1C(=O)c1ccccc1-n1nccn1 [Example 42, (4-cyclopropyl-2-{[(3R,6R)-6-methyl-1-{[2-(2H-1,2,3-triazol-2-yl)phenyl]carbonyl}piperidin-3-yl]oxy}pyridin-3-yl) methanol]",17,107
"CC(C)c1ccnc(O[C@@H]2CC[C@@H](C)N(C(=O)c3ccccc3-n3nccn3)C2)c1CO [Example 43, [4-(1-methylethyl)-2-{[(3R,6R)-6-methyl-1-{[2-(2H-1,2,3-triazol-2-yl)phenyl]carbonyl}piperidin-3-yl]oxy}pyridin-3-yl]methanol]",23,80
"C[C@@H]1CC[C@@H](Oc2nccc(C(F)(F)F)c2CO)CN1C(=O)c1ccccc1-n1nccn1 [Example 44, [2-{[(3R,6R)-6-methyl-1-{[2-(2H-1,2,3-triazol-2-yl)phenyl]carbonyl}piperidin-3-yl]oxy}-4-(trifluoromethyl)pyridin-3-yl] methanol]",18,81
